From patent US20170152245A1 (National Taiwan University, priority 2015, published 2017)

What was measured:
[1] = tested on: human platelet suspension; assay: Collagen-induced platelet aggregation in human platelet suspension; assay type: cell-based; conditions: collagen 10 μg/ml; for % inhibition collagen: human platelet suspension, preliminary, compound concentration not given
Experimental: (§1) Human platelet suspension (PS) was prepared according to the method described previously. Briefly, blood sample, freshly obtained from healthy volunteers who had taken no medications during the preceding 2 weeks, was treated with acid citrate/dextrose (ACD) in a volume ratio of 9:1. After centrifugation at 120 g, 25° C. for 9 min, platelet-rich plasma was transferred into another plastic tube and incubated with heparin (6.4 U/ml) as well as prostaglandin E1 (1 μM). Platelets were spun down by centrifugation at 500 g, 25° C. for 8 min and subsequently washed two times with Tyrode solution (NaH2PO4 0.4 mM; NaCl 136.9 mM; KCl […]; NaHCO3 11.9 mM; CaCl2 2 mM; MgCl2 2.1 mM; glucose 11.1 mM; BSA 3.5 mg/ml; pH 7.35-7.4). The washed platelets were finally suspended in Tyrode's solution and the platelet count was adjusted to 3.75×10^8 platelets/ml. For platelet-rich plasma (PRP) preparation, whole blood was anticoagulated with 1/10 vol of sodium citrate (3.8%, w/v) and centrifuged at 150 g, 25° C. for 9 min.
(§2) Platelet aggregation was measured turbidimetrically with a Lumi-aggregometer (Payton Scientific) at 37° C. under stirring condition (900 rpm). Platelet suspensions were prewarmed to 37° C. for 2 min in a silicone-treated glass cuvette. Nstpbp5185 was added 3 min before the addition of platelet-aggregation inducers. The extent of platelet aggregation was determined by recording the increase of light transmission relative to that of control (maximal aggregation, as 100%) for 6 min after the addition of inducer. The final volume and platelet count for measuring platelet aggregation were 500 μl and 3×10^8/ml, respectively.

[2] = tested on: human platelet suspension; assay: Arachidonic acid-induced platelet aggregation in human platelet suspension; assay type: cell-based; conditions: AA 200 μM
Experimental: as §1, §2

[3] = tested on: human platelet suspension; assay: U46619-induced platelet aggregation in human platelet suspension; assay type: cell-based; conditions: for IC50: Homo sapiens, Platelet, U46619-induced aggregation, platelet suspension, read-out: P.S(U46619) IC50
Experimental: as §1, §2

[4] = tested on: human platelet-rich plasma; assay: Collagen-induced platelet aggregation in human platelet-rich plasma; assay type: cell-based; conditions: human PRP, data not shown, read-out: IC50 collagen-induced platelet aggregation in human PRP
Experimental: as §1, §2

[5] = tested on: human platelet suspension; assay: Thromboxane B2 formation in human platelet suspension; assay type: cell-based; conditions: Homo sapiens, Platelet; collagen-activated platelets; 500 μM; read-out: inhibition of TXB2 formation
Experimental: Human platelet suspension (3.75×10^8/ml) was preincubated in the presence or absence of nstpbp5185 or aspirin for 3 min before the addition of collagen or AA. Six minutes after the addition of agonist, […] indomethacin and 2 mM EDTA were added to the reaction suspension. After centrifugation in an Eppendorf centrifuge at 14,000 g for 2 min, the thromboxane B2 (TXB2), the stable metabolite of TXA2, levels of the supernatant were measured using a competitive enzyme-immuno assay (EIA) kit according to the instructions of the manufacturer.

[6] = tested on: mesenteric venules of mice; assay: Fluorescein sodium-induced platelet thrombus formation in mesenteric venules of mice; assay type: in vivo
Experimental: A modification of the method was used. Male ICR mice (12-14 g) were anesthetized with sodium pentobarbital (50 mg/kg, i.p.). […] Five min later, various doses of nstpbp5185 (2 and 4 μg/g), aspirin (150 and 250 μg/g), or DMSO (control) were administered by i.v. through other lateral tail vein. The injected volume of the nstpbp5185, aspirin, or DMSO (control) was smaller than 10 μl. A segment of the small intestine with its mesentery attached was exteriorized through a midline incision on the abdominal wall and placed onto a transparent plastic plate for microscopic observation. Frequent rinsing of the mesentery with warm isotonic saline kept at 37° C. was performed to prevent the mesentery from drying out. Microvessels in the mesentery were observed under transillumination from a halogen lamp. Venules with diameters of 30-40 μm were selected to be irradiated to produce a microthrombus. In the epi-illumination system, light from a 100-W mercury lamp was filtered through a filter (B-2A, Nikon, Tokyo, Japan) with a dichromic mirror (DM 510, Nikon). The filtered light eliminated wavelengths below 520 nm irradiated a microvessel through an objective lens (20×). The area of irradiation was about 100 μm in diameter on the focal plane. Ten minutes after administration of the dye, the irradiation by filtered light and a timer were simultaneously started, and thrombus formation was observed on a TV-monitor. Occlusion time was recorded as the time interval for inducing thrombus formation leading to cessation of blood flow.
After giving 50 μg/g fluorescein sodium, the irradiation of mesenteric venules induced thrombus formation which is consist of activated platelets and fibrin clots. […] In the vehicle-treated group, the average TTO was approximately 143.71±4.99 sec (n=17). The group pre-treated with compound 5185 (10 μg/g), the average TTO value was 208.67±6.99 sec (n=12).

rats = assay: Gastric damage in rats; assay type: in vivo; conditions: 150 μg g^−1 oral, 3 h
Experimental: Rats (Wistar) were fasted overnight then given aspirin at dose of 150 mg/kg or nstpbp5185 at 40 mg/kg. Both drugs were suspended in 1% carboxymethylcellulose. Three hours later, the rats were sacrificed, the stomach excised, and the extent of hemorrhagic erosions scored by an observer unaware of treatment the rats received. Each lesion larger than 2 mm was counted for comparison. The stomach was fixed in formalin (pH, 7.4) and photographed.

mice carotid artery = assay: FeCl3-induced thrombus formation in mice carotid artery; assay type: in vivo; conditions: for time to FeCl3-induced occlusion: heparin 10 U kg^−1 or aspirin 40 μg g^−1 i.v.; for FeCl3-induced thrombus formation: heparin 100 U kg^−1 or aspirin 80 μg g^−1 i.v.
Experimental: FIG. 14 The antithrombotic activity of nstpbp5185 in FeCl3-induced thrombi formation in mice carotid artery. (A) Mice were intravenously administered with Heparin (10 or 100 U kg^−1), Aspirin (40 or 80 μg g^−1), or different doses of nstpbp5185 (B). After 5 min, FeCl3 injury was induced by a filter paper saturated with ferric chloride solution (10%). After removal of the paper, carotid blood flow (ml min^−1) was monitored continuously until thromboembolism formation or for 60 min. (C) Mice were orally administered with different doses of Aspirin and nstpbp5185 (D). Both drugs were suspended in 1% CMC. Blood flow monitoring were recorded used analyzed Labchart software (AD instruments). Data are presented as the mean±SEM (n≧3). **P<0.01 and ***P<0.001 as compared with the vehicle control (DMSO).
Mice were intravenously or orally administered with different doses of nstpbp5185.

Cox-1,-2 = conditions: Table III arrows, reference drugs; cited from earlier work
PGI2 formation = conditions: Table III arrows, reference drugs; cited from earlier work
Thromboxane synthase = molecular target: T1, Thromboxane synthase (Homo sapiens, UniProt P24557); conditions: cited from earlier work; for Thromboxane synthase: Table III arrows, reference drugs
T1 construct: MDS
T1 sequence (P24557 1-533): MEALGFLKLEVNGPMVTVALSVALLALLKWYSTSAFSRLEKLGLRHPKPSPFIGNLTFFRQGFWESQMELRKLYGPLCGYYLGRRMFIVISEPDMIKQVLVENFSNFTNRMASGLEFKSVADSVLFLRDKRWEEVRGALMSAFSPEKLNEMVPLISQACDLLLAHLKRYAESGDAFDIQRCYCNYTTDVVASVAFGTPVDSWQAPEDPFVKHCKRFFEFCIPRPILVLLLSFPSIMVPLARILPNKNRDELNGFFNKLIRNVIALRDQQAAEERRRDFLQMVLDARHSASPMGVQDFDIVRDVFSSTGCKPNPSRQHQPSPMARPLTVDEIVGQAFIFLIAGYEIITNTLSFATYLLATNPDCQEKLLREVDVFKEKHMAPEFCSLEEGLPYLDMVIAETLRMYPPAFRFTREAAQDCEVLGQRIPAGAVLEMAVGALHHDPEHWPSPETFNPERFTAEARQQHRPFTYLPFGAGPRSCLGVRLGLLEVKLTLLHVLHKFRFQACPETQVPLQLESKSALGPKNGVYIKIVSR

thromboxane receptor = molecular target: T2, thromboxane receptor (Homo sapiens, UniProt P21731); conditions: cited from earlier work; for Thromboxane receptor: Table III arrows, reference drugs
T2 sequence (P21731 1-343): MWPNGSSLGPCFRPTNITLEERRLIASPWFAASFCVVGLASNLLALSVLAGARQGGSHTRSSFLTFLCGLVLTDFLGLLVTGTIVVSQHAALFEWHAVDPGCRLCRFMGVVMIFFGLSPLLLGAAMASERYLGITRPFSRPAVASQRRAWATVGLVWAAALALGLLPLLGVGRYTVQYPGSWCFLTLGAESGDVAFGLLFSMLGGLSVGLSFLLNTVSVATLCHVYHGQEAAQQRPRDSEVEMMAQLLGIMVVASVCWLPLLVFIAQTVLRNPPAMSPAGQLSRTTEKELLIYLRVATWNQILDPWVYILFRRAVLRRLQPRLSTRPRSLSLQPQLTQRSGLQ

[7] = tested on: human platelet suspension; assay: ADP-induced platelet aggregation in human platelet suspension; assay type: cell-based; conditions: human platelet suspension; preliminary; compound concentration not given
Experimental: as §1, §2

## CC(=O)Oc1ccccc1C(=O)O [aspirin, reference compound]
[1]; Platelet, washed human platelets, read-out: IC50 collagen-induced platelet aggregation in human PS
  IC50: ~190 µM
[2]
  IC50: 313 ± 18.7 µM
[3]; 500 μM, data not shown
  effect on U46619-induced platelet aggregation: no effect
[4]
  IC50: 5100 ± 700 µM
[5]
  inhibition at 500 µM: 96%
[6]; 250 μg g^−1 i.v.
  occlusion time: 175.5 ± 25.3 s
  occlusion time at return to control, within 60 min: 82.6 ± 9.4 s
  occlusion time within 40 min after administration: 155.0 ± 7.1 s
  time until occlusion time returned to the control value: ≤ 60 min
[6]; low dose (below 250 μg g^−1)
  change of occlusion time: did not significantly change
rats
  gastric lesions (>2 mm): marked lesions
Mice carotid artery
  time to FeCl3-induced occlusion: about 10 min
  FeCl3-induced thrombus formation: blocked
Cox-1,-2
  Cox-1,-2: ↓
PGI2 formation
  PGI2 formation: ↓

## Cc1ccc2c(c1CCC(=O)O)CC[C@@H](NS(=O)(=O)c1ccc(Cl)cc1)C2 [Example S18886]
Thromboxane synthase
  Thromboxane synthase: ↓
Thromboxane receptor
  Thromboxane receptor: ↓

## O=C(O)CCCCO/N=C(/c1cccnc1)c1cccc(C(F)(F)F)c1 [Ridogrel]
Thromboxane synthase
  Thromboxane synthase: ↓
Thromboxane synthase; reference drug
  IC50: 0.001 µM
Thromboxane receptor
  Thromboxane receptor: ↓
Thromboxane receptor; reference drug
  IC50: 1 µM
PGI2 formation
  PGI2 formation: ↑

## Cc1ccc(Cn2c(-c3ccc(C)o3)nc3ccccc32)cc1 [Example 9, 1-(p-Methylbenzyl)-2-(5-methyl-2-furyl)benzimidazole]
[1]
  % inhibition collagen: 1.1%
[7]
  % inhibition ADF: 17.4 (n = 3) %
[3]
  IC50: 4.63 µM

## heparin
Mice carotid artery
  time to FeCl3-induced occlusion: about 10 min
  FeCl3-induced thrombus formation: blocked

## COc1cccc(Cn2c(-c3ccc(C)o3)nc3ccccc32)c1 [Example 6]
[1]
  % inhibition collagen: 19.1%
[7]
  % inhibition ADF: 41.4 (n = 2) %

## Cc1ccc(-c2nc3ccc(C(=O)c4ccccc4)cc3n2Cc2ccc(F)cc2)o1 [Example 78, 6-benzoyl-1-(4-fluorobenzyl)-2-(5-methyl-2-furyl)benzimidazole]
[3]
  IC50: 25.8 µM

## Cc1ccc(-c2nc3ccc(Cl)cc3n2Cc2ccccc2C)o1 [Example 53b, 6-chloro-1-(2-methylbenzyl)-2-(5-methyl-2-furyl)benzimidazole]
[3]
  IC50: 3.2 µM

## Cc1ccc(-c2nc3cc(Cl)ccc3n2Cc2ccccc2Cl)o1 [Example 45a, 5-chloro-1-(2-chlorobenzyl)-2-(5-methyl-2-furyl)benzimidazole]
[3]
  IC50: 46.3 µM

## Cc1ccc(-c2nc3ccc(C(=O)c4ccccc4)cc3n2Cc2ccccc2F)o1 [Example 80, 6-benzoyl-1-(2-fluorobenzyl)-2-(5-methyl-2-furyl)benzimidazole]
[3]
  IC50: > 50 µM

## COc1ccc2c(c1)c(CC(=O)O)c(C)n2C(=O)c1ccc(Cl)cc1 [indomethacin, reference compound]
[3]; U46619 1 μM, indomethacin concentration not given
  effect on U46619-induced platelet aggregation: without effects

## Cc1ccc(-c2nc3cc(Cl)c(Cl)cc3n2Cc2ccccc2F)o1 [Example 65, 5,6-dichloro-1-(2-fluorobenzyl)-2-(5-methyl-2-furyl) benzimidazole]
[3]
  IC50: 8.32 µM

## Cc1ccc(-c2nc3ccc(F)cc3n2Cc2ccccc2Cl)o1 [Example 31b, 6-fluoro-1-(2-chlorobenzyl)-2-(5-methyl-2-furyl)benzimidazole]
[3]
  IC50: 12.7 µM

## COc1cccc(Cn2c(-c3ccc(C)o3)nc3ccc(C(=O)c4ccccc4)cc32)c1 [Example 77, 6-benzoyl-1-(3-methoxybenzyl)-2-(5-methyl-2-furyl)benzimidazole]
[3]
  IC50: > 50 µM

## Cc1ccc(-c2nc3cc(F)ccc3n2Cc2ccccc2Cl)o1 [Example 31a, 5-fluoro-1-(2-chlorobenzyl)-2-(5-methyl-2-furyl)benzimidazole]
[3]
  IC50: 22.7 µM

## Cc1ccc(-c2nc3cc(F)ccc3[nH]2)o1 [Example 30]
[3]
  IC50: 52.1 µM

## Cc1ccc(-c2nc3ccc(F)cc3n2Cc2ccccc2C)o1 [Example 41b, 6-fluoro-1-(2-methylbenzyl)-2-(5-methyl-2-furyl)benzimidazole]
[3]
  IC50: 2.38 µM

## Cc1ccc(-c2nc3cc(Cl)c(Cl)cc3n2Cc2cccc(Cl)c2)o1 [Example 59, 5,6-dichloro-1-(3-chlorobenzyl)-2-(5-methyl-2-furyl)benzimidazole]
[3]
  IC50: 3.74 µM
